Results reported in PubChem BioAssay AID488833 (Sanford-Burnham Center for Chemical Genomics, 2010).
Calls of active or inactive are those of the source.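 The calls were made as follows: active = EC50 below a set limit; inactive = the rest.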

Molecular target: Kappa-type opioid receptor (Homo sapiens) (UniProt P41145)
Assay: kappa opioid receptor activation by imaging – image-based, set 3, SAR follow-up (AID 488833)
Settings: U2OS KOR beta-arrestin-GFP translocation imaging

Kappa-type opioid receptor (Homo sapiens), sequence (P41145 whole entry, looked up): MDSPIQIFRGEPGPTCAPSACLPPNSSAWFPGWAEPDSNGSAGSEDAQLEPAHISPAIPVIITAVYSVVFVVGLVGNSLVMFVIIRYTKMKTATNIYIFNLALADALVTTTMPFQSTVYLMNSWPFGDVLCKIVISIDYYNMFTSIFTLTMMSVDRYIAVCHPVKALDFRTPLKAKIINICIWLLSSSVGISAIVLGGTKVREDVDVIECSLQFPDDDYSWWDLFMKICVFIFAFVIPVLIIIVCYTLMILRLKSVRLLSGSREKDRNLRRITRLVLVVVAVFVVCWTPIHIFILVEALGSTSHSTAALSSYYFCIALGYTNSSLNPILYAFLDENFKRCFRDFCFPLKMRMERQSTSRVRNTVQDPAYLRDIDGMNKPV

Cc1ccccc1CSc1nnc(-c2ccccn2)n1Cc1cccs1
EC50: inactive
